From US9937186B2, “Sulfonamides derived from tricyclyl-2-aminocycloalkanols as anticancer agents” (ICAHN SCHOOL OF MEDICINE AT MOUNT SINAI, priority 2014, dated 2018)

Test system: H1650 lung cancer cells
Assay: Cell viability assay (MTT), H1650 lung cancer cells
Format: cell-based
Details: for GI50 / IC50: Homo sapiens, NCI-H1650; for IC50: H1650 lung cancer cells, 48 h drug treatment, MTT
Description: Cell Viability Assays (IC50 Determination)
Cell viability assays were performed according to Denizot, F. and R. Lang, Journal of Immunological Methods, 1986. 89(22): p. 271-277. H1650 lung cancer cells were plated at 150,000 cells per well in a 12 well plate. Twenty-four hours after plating, cells were treated as described with increasing concentrations of drug and control. Forty-eight hours after drug treatment, cells were treated with 100 μL of 3-(4,5-Dimethylthiazol-2-yl)-2,5-diphenyltetrazolium bromide (MTT) and incubated for 2 hours at 37 C. The MTT solution was subsequently replaced with 300 μL of n-propyl alcohol and re-aliquoted to a 96 well plate. Spectrophotometric analysis of each solution was performed using a 96 well plate reader at 600 nm in triplicate.

Structure (SMILES)	GI50 (H1650 cells) [µM]	IC50 [µM]	H1650 GI50 (H1650 cells)
O=S(=O)(N[C@@H]1CCCC(N2c3ccccc3COc3ccccc32)[C@H]1O)c1ccc(OC(F)(F)F)cc1 (mixture of isomers) [Example 2, N-((1R,2R,3S)-rel-3-(dibenzo[b,e][1,4]oxazepin-5(11H)-yl)-2-hydroxycyclohexyl)-4-(trifluoromethoxy)benzenesulfonamide]	20	20	
O=S(=O)(N[C@@H]1CCCC(N2c3ccccc3Oc3ccccc32)[C@H]1O)c1ccc(SC(F)(F)F)cc1 (mixture of isomers) [Example 16]	10		
O=S(=O)(N[C@@H]1CCCC(N2c3ccccc3Oc3ccccc32)[C@H]1O)c1ccc(OC(F)(F)F)cc1Cl (mixture of isomers) [Example 17]	15		
O=S(=O)(N[C@@H]1CCCC(N2c3ccccc3Oc3ccccc32)[C@H]1O)c1ccc(CC(F)(F)F)cc1 (mixture of isomers) [Example 18]	15		
O=S(=O)(N[C@@H]1CCCC(N2c3ccccc3Oc3ccccc32)[C@H]1O)c1ccc(C(F)(F)C(F)(F)F)cc1 (mixture of isomers) [Example 19]	10		
O=S(=O)(N[C@@H]1CCCC(N2c3ccccc3Oc3ccccc32)[C@H]1O)c1ccc(OC(F)F)cc1 (mixture of isomers) [Example 20]	25		
O=S(=O)(N[C@@H]1CCCC(N2c3ccccc3Oc3ccccc32)[C@H]1O)c1ccc(OC(F)(F)F)c(Cl)c1 (mixture of isomers) [Example 21]	15		
O=S(=O)(N[C@@H]1CCCC(n2c3ccc(Cl)cc3c3cc(Cl)ccc32)[C@H]1O)c1ccc(OC(F)(F)F)cc1 (mixture of isomers) [Example 22]	5		
O=S(=O)(N[C@@H]1CCCC(n2c3ccc(Cl)cc3c3cc(Cl)ccc32)[C@H]1O)c1ccc(Cl)cc1 (mixture of isomers) [Example 23]	5		
O=S(=O)(N[C@@H]1CCCC(n2c3ccc(Br)cc3c3cc(Br)ccc32)[C@H]1O)c1ccc(OC(F)(F)F)cc1 (mixture of isomers) [Example 24]	5		
O=S(=O)(N[C@@H]1CCCC(n2c3ccc(Br)cc3c3cc(Br)ccc32)[C@H]1O)c1ccc(Cl)cc1 (mixture of isomers) [Example 25]	15		
N#Cc1ccc2c(c1)c1cc(C#N)ccc1n2C1CCC[C@@H](NS(=O)(=O)c2ccc(OC(F)(F)F)cc2)[C@@H]1O (mixture of isomers) [Example 26]			Weak
N#Cc1ccc2c(c1)c1cc(Br)ccc1n2C1CCC[C@@H](NS(=O)(=O)c2ccc(OC(F)(F)F)cc2)[C@@H]1O (mixture of isomers) [Example 27]	5		
N#Cc1ccc2c(c1)c1ccccc1n2C1CCC[C@@H](NS(=O)(=O)c2ccc(OC(F)(F)F)cc2)[C@@H]1O (mixture of isomers) [Example 28]	10		
COC(=O)c1ccc2c(c1)c1ccccc1n2C1CCC[C@@H](NS(=O)(=O)c2ccc(OC(F)(F)F)cc2)[C@@H]1O (mixture of isomers) [Example 29]	15		
O=S(=O)(N[C@@H]1CCCC(n2c3ccccc3c3cc(Br)ccc32)[C@H]1O)c1ccc(OC(F)(F)F)cc1 (mixture of isomers) [Example 30]	5		
O=S(=O)(N[C@@H]1CCCC(n2c3ccccc3c3ccccc32)[C@H]1O)c1ccc(Cl)cc1 (relative stereo) [Example 4, N-((1S,2S,3R)-rel-3-(9H-carbazol-9-yl)-2-hydroxycyclohexyl)-4-chlorobenzenesulfonamide]	15	15	
N#Cc1ccc(S(=O)(=O)N[C@@H]2CCCC(n3c4ccccc4c4ccccc43)[C@H]2O)cc1 (relative stereo) [Example 5, N-((1S,2S,3R)-rel-3-(9H-carbazol-9-yl)-2-hydroxycyclohexyl)-4-cyanobenzenesulfonamide]	20	20	
COc1ccc(S(=O)(=O)N[C@@H]2CCCC(n3c4ccccc4c4ccccc43)[C@H]2O)cc1 (relative stereo) [Example 6, N-((1S,2S,3R)-rel-3-(9H-carbazol-9-yl)-2-hydroxycyclohexyl)-4-methoxybenzenesulfonamide]	20	20	
O=S(=O)(N[C@@H]1CCCC(n2c3ccccc3c3ccccc32)[C@H]1O)c1ccccc1 (relative stereo) [Example 7, N-((1S,2S,3R)-rel-3-(9H-carbazol-9-yl)-2-hydroxycyclohexyl) benzenesulfonamide]	25	25	
CN1C(=O)c2ccccc2N(C2CCC[C@@H](NS(=O)(=O)c3ccc(OC(F)(F)F)cc3)[C@@H]2O)c2ccccc21 (relative stereo) [Example 8, 4-Trifluoromethoxy-N-((1S,2S,3R)-rel-2-hydroxy-3-(10-methyl-11-oxo-10,11-dihydro-5H-dibenzo[b,e][1,4]diazepin-5-yl)cyclohexyl)benzenesulfonamide]	15	15	
CN1C(=O)c2ccccc2N(C2CCC[C@@H](NS(=O)(=O)c3ccc(Cl)cc3)[C@@H]2O)c2ccccc21 (relative stereo) [Example 9, 4-Chloro-N-((1S,2S,3R)-rel-2-hydroxy-3-(10-methyl-11-oxo-10,11-dihydro-5H-dibenzo[b,e][1,4]diazepin-5-yl)cyclohexyl)benzenesulfonamide]	25	25	
O=S(=O)(N[C@H]1CCC[C@@H](n2c3ccccc3c3cc(F)ccc32)[C@@H]1O)c1ccc(OC(F)(F)F)cc1 (stereo in doubt) [Example 31b, N-((1S,2S,3R)-3-(3-fluoro-9H-carbazol-9-yl)-2-hydroxycyclohexyl)-4-(trifluoromethoxy)benzenesulfonamide]	5		
O=S(=O)(N[C@H]1CCC[C@@H](n2c3ccccc3c3cc(F)ccc32)[C@@H]1O)c1ccc(OC(F)(F)F)cc1 [Example 31a, N-((1S,2S,3R)-3-(3-fluoro-9H-carbazol-9-yl)-2-hydroxycyclohexyl)-4-(trifluoromethoxy)benzenesulfonamide]	5		
O=S(=O)(N[C@H]1CCC[C@@H](n2c3ccc(F)cc3c3cc(F)ccc32)[C@@H]1O)c1ccc(OC(F)(F)F)cc1 [Example 32a, N-((1S,2S,3R)-3-(3,6-difluoro-9H-carbazol-9-yl)-2-hydroxycyclohexyl)-4-(trifluoromethoxy)benzenesulfonamide]	5		
O=S(=O)(N[C@@H]1CCC[C@H](n2c3ccc(F)cc3c3cc(F)ccc32)[C@H]1O)c1ccc(OC(F)(F)F)cc1 [Example 32b]	5		
